Patent US20130184280A1, “SUBSTITUTED THIAZOLES AS VEGFR2 KINASE INHIBITORS” (TELIK, INC., priority 2011, published 2013)

How the values were obtained:
VEGFR2 kinase = molecular target: T1, VEGFR2 kinase (Homo sapiens, UniProt P35968); assay: In Vitro VEGFR2 Kinase Assay; format: biochemical; settings: FP; CSKtide substrate, 60 minutes at room temperature
T1 construct: purchased InVitrogen
Procedure: In Vitro VEGFR2 Kinase Assay
50 ng/well VEGFR2 kinase (from InVitrogen) was mixed in buffer (14.5 μL/well). To this were added, 0.5 μL of the compound of this invention at a concentration of 2.5% in DMSO. After incubatiuon for 5 minutes at room temperature, 5 μL of substrate (CSKtide, 400 nM) and 8 μL ATP were added. The mixture was incubated for 60 minutes at room temperature and 60 uL of binding reagent (beads) was added. After incubation overnight at room temperature, the plate was read with a LJL plate reader.

[1] = In Vitro Cytotoxicity Assay HCT116 (CellTiter-Glo); format: cell-based; settings: human, HCT116 colon carcinoma cells, cultured three days
Procedure: The cell lines HL60 (human promyelocytic leukemia) and HCT116 (human colon carcinoma) were obtained from the American Type Culture Collection, Manassas, Va., U.S.A. All products were used in accordance with manufacturer's directions. The cytotoxicity assays were conducted in triplicate, in each case with solvent control.
Log-phase cells were trypsinized, collected by centrifugation, and resuspended in a small volume of fresh medium, and the density of viable cells was determined following Trypan Blue staining Cells were diluted in fresh media, the test compounds (concentrations between 0.1 μM and 200 μM, dissolved in DMSO, 50 μL) added immediately after dilution to achieve a final DMSO concentration of 0.5%, then the suspensions added at 150 μL/well to 96-well plates, and incubated overnight to allow attachment in the case of adherent cells. The cells were cultured for three days (about three doubling times). The cells were then collected by centrifugation, and 100 μL of the culture supernatant was replaced by the CellTiter-Glo reagent. After incubation for 15 minutes at room temperature, the plate was read with a luminometer. […] The table gives cytotoxicity IC50s in μm.

T1 sequence (P35968 20-1356): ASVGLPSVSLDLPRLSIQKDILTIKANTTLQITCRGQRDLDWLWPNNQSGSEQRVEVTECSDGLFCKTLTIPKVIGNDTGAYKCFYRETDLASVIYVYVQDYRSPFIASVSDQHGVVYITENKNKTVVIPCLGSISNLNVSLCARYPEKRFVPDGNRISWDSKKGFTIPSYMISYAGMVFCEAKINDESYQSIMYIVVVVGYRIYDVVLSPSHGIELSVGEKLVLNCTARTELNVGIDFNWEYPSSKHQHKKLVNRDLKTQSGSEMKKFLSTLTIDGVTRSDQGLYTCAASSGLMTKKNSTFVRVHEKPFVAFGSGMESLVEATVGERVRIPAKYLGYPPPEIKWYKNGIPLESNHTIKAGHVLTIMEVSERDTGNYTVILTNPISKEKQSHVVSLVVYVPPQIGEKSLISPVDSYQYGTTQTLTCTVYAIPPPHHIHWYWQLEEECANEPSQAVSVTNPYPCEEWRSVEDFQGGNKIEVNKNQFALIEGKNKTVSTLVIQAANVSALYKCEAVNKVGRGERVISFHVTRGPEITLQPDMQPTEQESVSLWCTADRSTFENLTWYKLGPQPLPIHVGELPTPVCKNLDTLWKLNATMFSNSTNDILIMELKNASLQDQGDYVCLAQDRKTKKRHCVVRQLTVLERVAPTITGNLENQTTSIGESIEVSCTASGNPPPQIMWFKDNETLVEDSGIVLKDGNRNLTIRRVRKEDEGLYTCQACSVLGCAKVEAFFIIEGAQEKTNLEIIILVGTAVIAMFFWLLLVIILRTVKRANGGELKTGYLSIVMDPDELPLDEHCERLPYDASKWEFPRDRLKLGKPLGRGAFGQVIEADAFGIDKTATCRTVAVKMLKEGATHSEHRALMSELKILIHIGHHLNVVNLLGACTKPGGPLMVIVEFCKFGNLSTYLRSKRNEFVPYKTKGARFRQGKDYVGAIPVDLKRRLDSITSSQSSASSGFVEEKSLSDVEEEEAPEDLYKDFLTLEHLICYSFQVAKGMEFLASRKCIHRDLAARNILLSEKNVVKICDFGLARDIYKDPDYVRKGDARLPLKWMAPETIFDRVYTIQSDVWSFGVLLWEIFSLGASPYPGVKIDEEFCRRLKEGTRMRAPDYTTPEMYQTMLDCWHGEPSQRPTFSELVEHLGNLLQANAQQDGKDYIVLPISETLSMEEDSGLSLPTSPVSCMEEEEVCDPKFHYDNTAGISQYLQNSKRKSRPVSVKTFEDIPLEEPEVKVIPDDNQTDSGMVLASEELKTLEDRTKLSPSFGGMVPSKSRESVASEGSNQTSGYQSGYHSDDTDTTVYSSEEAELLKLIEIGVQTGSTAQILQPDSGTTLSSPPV

Structure (SMILES)	IC50 (VEGFR2 kinase) [nM]	IC50 at 3 days [1] [nM]
Nc1ncncc1-c1nc(-c2cccc(NC(=O)Nc3cccc(CO)c3)c2)cs1 [Compound 44]	30	30000
Cc1cccc(C(=O)Nc2cccc(-c3csc(-c4cncnc4N)n3)c2)c1 [Compound 41]	10	20000
Cc1nc(-c2cccc(NC(=O)Nc3cccc(-c4csc(-c5cncnc5N)n4)c3)c2)no1 [Compound 47]	90	> 50000
CCc1cccc(C)c1NC(=O)Nc1cccc(-c2csc(-c3cncnc3N)n2)c1 [Compound 38]	200	> 50000
CC(=O)Nc1cccc(-c2csc(-c3cncnc3N)n2)c1 [Compound 61]	300	40000
Nc1ncncc1-c1nc(-c2cccc(NC(=O)Nc3ccccc3[N+](=O)[O-])c2)cs1 [Compound 33]	50	> 50000
Nc1ncncc1-c1nc(-c2cccc(NC(=O)Cc3cccc(C(F)(F)F)c3)c2)cs1 [Compound 40]	100	7000
Nc1ncncc1-c1nc(-c2cccc(NC(=O)c3cccnc3)c2)cs1 [Compound 23]	500	10000
CCNC(=O)Nc1cccc(-c2csc(-c3cncnc3N)n2)c1 [Compound 60]	80	> 50000
Nc1ncncc1-c1nc(-c2cccc(NC(=O)Nc3cccc(Cl)c3)c2)cs1 [Compound 31]	60	1000
Nc1ncncc1-c1nc(-c2cccc(NC(=O)Cc3ccccc3)c2)cs1 [Compound 45]	40	30000
Nc1ncncc1-c1nc(-c2cccc(NC(=O)C3CCCC3)c2)cs1 [Compound 64]	300	> 50000
CCCCOC(=O)c1ccccc1NC(=O)Nc1cccc(-c2csc(-c3cncnc3N)n2)c1 [Compound 36]	300	10000
Nc1ncncc1-c1nc(-c2cccc(NC(=O)N3CCCCC3)c2)cs1 [Compound 68]	200	20000
Nc1ncncc1-c1nc(-c2cccc(NC(=O)c3ccc(F)cc3)c2)cs1 [Compound 5]	30	30000
CC(C)(O)c1cccc(NC(=O)Nc2cccc(-c3csc(-c4cncnc4N)n3)c2)c1 [Compound 43]	20	5000
N#Cc1cccc(NC(=O)Nc2cccc(-c3csc(-c4cncnc4N)n3)c2)c1 [Compound 30]	400	> 50000
Nc1ncncc1-c1nc(-c2cccc(NC(=O)c3ccncc3)c2)cs1 [Compound 24]	–	30000
Cc1ccc(NC(=O)Nc2cccc(-c3csc(-c4cncnc4N)n3)c2)cc1Cl [Compound 11]	10	3000
Nc1ncncc1-c1nc(-c2cccc(NC(=O)N3CCC(O)CC3)c2)cs1 [Compound 69]	400	4000
N#Cc1ccc(NC(=O)Nc2cccc(-c3csc(-c4cncnc4N)n3)c2)cc1 [Compound 29]	60	> 50000
CCOC(=O)CNC(=O)Nc1cccc(-c2csc(-c3cncnc3N)n2)c1 [Compound 59]	300	30000
Nc1ncncc1-c1nc(-c2cccc(NC(=O)C3CCCCC3)c2)cs1 [Compound 62]	20	> 50000
Nc1ncncc1-c1nc(-c2cccc(NC(=O)NC3CCCC3)c2)cs1 [Compound 63]	70	7000
COc1ccccc1C(=O)Nc1cccc(-c2csc(-c3cncnc3N)n2)c1 [Compound 25]	300	10000
CCOC(=O)c1cccc(NC(=O)Nc2cccc(-c3csc(-c4cncnc4N)n3)c2)c1 [Compound 42]	100	4000
Cc1cccc(NC(=O)c2cccc(-c3csc(-c4cncnc4N)n3)c2)c1 [Compound 49]	400	10000
Nc1ncncc1-c1nc(-c2cccc(NC(=O)CN3CCCCC3)c2)cs1 [Compound 67]	300	10000
